Experiments:
[1] = system: endogenous Bcl-xL protein in HepG2 cell lysate; test: Co-precipitation of endogenous Bcl-xL from HepG2 cell lysate by biotinylated HBx peptides; format: binding, human; conditions: biotinylated peptide, streptavidin beads, immunoblot
Protocol: Fig. 2 HBx binds endogenous Bcl-xL through the BH3-like domain. a HBx-aa113–135 interacts with Bcl-xL in HepG2 cell lysate. Co-precipitation experiments were performed in the HepG2 cell lysate using biotinylated HBx-aa113–135 peptides (wild type (WT)) and corresponding mutant peptides (W120A/L123A), respectively. The results were analyzed by immunoblotting (IB) using anti-Bcl-xL antibody. β-Tubulin was measured and analyzed as an input control. b Full-length HBx interacts with Bcl-xL in HepG2 cells. Co-immunoprecipitation (co-IP) experiments were performed in HepG2 cells transfected with pTT22m-HBx-WT or pTT22m-HBx(W120A/L123A).
HepG2 cells were lysed in lysis buffer [100 mM NaCl, 0.5 mM MgCl2, 0.15 mM CaCl2, 1% (v/v) Nonidet P-40, 10 mM Tris-HCl, pH 8.0] containing protease inhibitor mixture tablets (Roche). Cell lysate was centrifuged at 12,000 × g for 10 min at 4 °C to removed debris and precleared with magnetic beads conjugated with streptavidin (Dynabeads® M-280 Streptavidin, Invitrogen). Subsequently, the precleared supernatant was incubated with C-terminal biotinylated peptides for 1 h with gentle shaking at 4 °C. […] The beads were washed five times with the lysis buffer and the bound proteins were resolved on a 13.5% sodium dodecyl sulfate-polyacrylamide gel and detected by anti-Bcl-xL antibody (Cell Signaling Technology).

DDB1 = format: binding; conditions: biotin-conjugated peptides, HepG2 lysate; peer review file, removed from final paper
Protocol: (§1) affect the level of the Smc6 proteins in HepG2 cell. a, Coprecipitation experiments were performed with HepG2 cell lysate that was incubated with biotinylated HBx-aa113-135 peptides (WT) and mutant peptides with the W120A/L123A mutations, respectively. The pulldown proteins were analyzed by immunoblotting (IB) using an anti-DDB1 antibody (Abcam, ab109027). b-c, HBx-aa113-135 peptides (wild-type and the W120A/L123A double mutant peptides) were delivered into HepG2 cells using PEP-1 nanoparticles, respectively. […]

SMC6 = format: cell-based; conditions: HepG2, 48 h, PEP-1 delivery; peer review file, removed from final paper
Protocol: as §1
Smc6 protein expression. Nuclei were stained with DAPI (Invitrogen, D1306). The fluorescence was detected by Opera Phenix High Content Screening System (PerkinElmer) and the mean green fluorescence intensity of cells was quantified by Opera Phenix High Content Screening System. The data shown are mean ± SD. Significant differences between groups are indicated on the top. ns, no significant difference; two-tailed unpaired t-tests.

[2] = system: HBV replication from pHBV1.3-Xnull replicon in HepG2 cells; test: HBV production rescue assay, PEP-1 delivered peptides; format: cell-based; conditions: HepG2 + pHBV1.3-Xnull; for HBcAg in cells / HBeAg in culture medium / HBsAg in culture medium / Secreted HBV DNA: peptide/PEP-1, 48 h; for HBV viral protein production and HBV DNA replication (in words): peptide/PEP-1 nanoparticles, 48 h
Text: Fig. 3 The HBx-BH3-like domain is critical for HBV production in HepG2 cells. a–e C-terminal biotinylated HBx-aa113–135 peptides (both wild-type (WT) and the W120A/L123A double mutant) were delivered into HepG2 cells transfected with pHBV1.3-Xnull using PEP-1 nanoparticles (Methods) and analyzed by streptavidin-FITC (fluorescein isothiocyanate) for transfection efficiency (a). Scale bar is 50 μm. An unrelated 23-aa peptide was used as a control (Control). The intracellular expression levels of HBV core antigen (HBcAg (b) and the levels of HBV e-antigen (HBeAg) (c), HBV S-antigen (HBsAg) (d), and HBV DNA (e) in the culture medium collected from HepG2 cells were measured (Methods). The results are shown as fold change to the WT HBx-aa113–135 peptide (WT). f–i) HepG2 cells were co-transfected with pHBV1.3-Xnull and pTT22m-HBx-WT (WT), pHBV1.3-Xnull and pTT22m-HBx(W120A/L123A), or pHBV1.3-Xnull and the pTT22m vector control (Control). Intracellular expression levels of HBcAg (f) and the levels of HBeAg (g), HBsAg (h), and HBV DNA (i) in the culture medium from HepG2 cells were measured similarly. The results are shown as fold change to the combination of pHBV1.3-Xnull and pTT22m-HBx-WT (WT). Data shown represent mean ± SD. Significance is indicated on the top. **P < 0.01, ***P < 0.001, ****P < 0.0001; two-tailed unpaired t tests (n = 3 biologically independent samples). Source data are provided as a Source Data file
HepG2 cells were grown in Dulbecco’s modified Eagle’s medium (DMEM) with 10% Gibco fetal bovine serum. C-terminal biotinylated-labeled HBx peptides were transfected into HepG2 cells by pep-1[16], a peptide carrier for the delivery of biologically active proteins into mammalian cells. HBx peptides and pep-1 were firstly dissolved in DMEM to 1 mg/ml, then adjusted to 500 µl DMEM to a final concentration of 100 µg/ml, and incubated at 37 °C for 30 min in the tube. The incubated peptide mixture was added into pre-seeded HepG2 cells in a 24-well plate and incubated for another 30 min, and then washed five times by phosphate-buffered saline (PBS) to remove the free peptides. The transfected C-terminal biotinylated HBx peptides were detected by using streptavidin-FITC (fluorescein isothiocyanate) equipment (Thermo Fisher Scientific) following the standard immunostaining methods.
Transfection of plasmids into HepG2 cells was carried out using X-tremeGENE HP DNA Transfection Reagent (Roche), following the manufacturer’s protocol. A transfection efficiency of 20–30% could be achieved. Cells were pre-seeded 24 h before transfections. pHBV1.3-HBx-null plasmid was transfected into HepG2 cells for 6 h, then HBx-aa113–135, HBx-aa113–135-(W120A, L123A), or control peptide was transfected by pep-1 carrier and incubated for additional 48 h without the removal of peptides. The culture media of the HepG2 cells were harvest for analysis.
The levels of HBsAg, HBeAg, and HBcAg expression were measured by chemiluminescence, using Commercial Assay Kit (Wantai, Beijing, China). Northern blot analysis of HBV RNA, Southern blot analysis of HBV DNA, and real-time PCR quantification of HBV DNA are described in the Supplementary Methods.

Bcl-xL = molecular target: T1, Bcl-xL (Homo sapiens, UniProt Q07817, DEL27-82); test: Isothermal titration calorimetry of peptides with Bcl-xL; format: binding; conditions: ITC, 25 °C; Bcl-xL 10 μM in 25 mM Tris-HCl (pH 8.0); peptide 800 μM
T1 construct: 6xHis-SUMO (N, cleaved yes); made in house; host or cells: Escherichia coli BL21(DE3)
T1 sequence (Q07817 with tags, fused parts or gaps DEL27-82 limits assumed): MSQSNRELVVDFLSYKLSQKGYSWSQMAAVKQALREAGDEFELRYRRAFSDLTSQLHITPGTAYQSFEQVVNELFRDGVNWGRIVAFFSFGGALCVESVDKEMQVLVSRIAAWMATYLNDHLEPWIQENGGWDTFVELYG
Text: The codon-optimized DNAs encoding Bcl-xLΔTM (the flexible loop, residues 27–82, and the transmembrane domain, residues, 197–233, are deleted, total […], named as Bcl-xL thereafter) was ordered from Genewiz (www.genewiz.com). The recombinant Bcl-xL with N-terminal SUMO-fused 6× His tag was generated by the insertion of the PCR products into pETSUMO vector (Invitrogen; www.thermofisher.com) and verified by sequencing. Recombinant proteins were expressed in Escherichia coli (BL21/DE3) strain overnight at 20 °C and proteins were induced by 0.4 mM isopropyl β-D-thiogalactoside. Cells were harvested by centrifugation and the pellets were re-suspended and passed through a cell disruptor (www.avestin.com) three times. After ultracentrifugation at 40,000 rpm for 1 h, the supernatant for His-tagged recombinant proteins were purified through Ni^2+ affinity column, cleaved by Ulp-1, followed by HiLoad Superdex S-75 26/60 column (GE Healthcare). The purified proteins were dialyzed against stabilization buffer containing 20 mM Tris-HCl (pH 7.0) and 100 mM NaCl and concentrated to 10–15 mg/ml in a Centriprep-30 (Amicon) for subsequent crystallization and biochemical analysis.
Microcalorimetry was used for all measurements. Bcl-xL protein was prepared at a final concentration of 10 μM in a buffer containing 25 mM Tris-HCl (pH 8.0). The ABT-263 was dissolved in the same buffer to a final concentration of 500 μM, while the peptides were dissolved to a final concentration of 800 μM. All experiments were carried out at 25 °C. Data were analyzed using the software Origin (OriginLab).

Question: With “KDCVFKDWEELGEEIRLKVFVLG-K-biotin [HBx-aa113–135-biotin, C-terminal biotinylated wild-type HBx-aa113–135; delivered with PEP-1 nanoparticles in cells]” as the substance, how does the “co-precipitation of Bcl-xL” value [1] read?
Answer: Bcl-xL was co-precipitated

Question: What about the “pull-down of DDB1 by peptide” value (DDB1) of the same substance?
Answer: could not be pulled down

Question: And the “level of SMC6 protein, compared with control peptide” value (SMC6)?
Answer: comparable

Question: What about the HBcAg in cells ([2]; replicate 1) of the same substance?
Answer: 1.057 fold-change to WT

Question: What about the “HBeAg in culture medium” value ([2]; replicate 1) of the same substance?
Answer: 0.919 fold-change to WT

Question: What about the “HBsAg in culture medium” value ([2]; replicate 1) of the same substance?
Answer: 0.971 fold-change to WT

Question: What about the “Secreted HBV DNA” value ([2]; replicate 1) of the same substance?
Answer: 3830000 Copies/mL

Question: And the HBcAg in cells ([2]; replicate 2)?
Answer: 0.952 fold-change to WT

Question: And the “HBeAg in culture medium” value ([2]; replicate 2)?
Answer: 1.090 fold-change to WT

Question: What about the “HBsAg in culture medium” value ([2]; replicate 2) of the same substance?
Answer: 1.038 fold-change to WT

Question: What about the “Secreted HBV DNA” value ([2]; replicate 2) of the same substance?
Answer: 2973000 Copies/mL

Question: What about the HBcAg in cells ([2]; replicate 3) of the same substance?
Answer: 0.991 fold-change to WT

Question: What about the “HBeAg in culture medium” value ([2]; replicate 3) of the same substance?
Answer: 0.990 fold-change to WT

Question: What about the “HBsAg in culture medium” value ([2]; replicate 3) of the same substance?
Answer: 0.991 fold-change to WT

Question: What about the “Secreted HBV DNA” value ([2]; replicate 3) of the same substance?
Answer: 4056000 Copies/mL

Question: And the “HBV viral protein production and HBV DNA replication (in words)” value [2]?
Answer: significantly increased both HBV viral protein production and HBV DNA replication

Question: Which “co-precipitation of Bcl-xL” value [1] does the source give for “KDCVFKDAEEAGEEIRLKVFVLG-K-biotin [HBx-aa113–135(W120A/L123A)]” here?
Answer: much less Bcl-xL was co-precipitated

Question: What about the “pull-down of DDB1 by peptide” value (DDB1) of the same substance?
Answer: could not be pulled down

Question: And the “level of SMC6 protein, compared with control peptide” value (SMC6)?
Answer: comparable

Question: What about the dissociation constant (Bcl-xL) of the same substance?
Answer: not detectable

Question: What about the HBcAg in cells ([2]; replicate 1) of the same substance?
Answer: 0.546 fold-change to WT

Question: And the “HBeAg in culture medium” value ([2]; replicate 1)?
Answer: 0.448 fold-change to WT

Question: And the “HBsAg in culture medium” value ([2]; replicate 1)?
Answer: 0.379 fold-change to WT

Question: What about the “Secreted HBV DNA” value ([2]; replicate 1) of the same substance?
Answer: 1584000 Copies/mL

Question: What about the HBcAg in cells ([2]; replicate 2) of the same substance?
Answer: 0.465 fold-change to WT

Question: What about the “HBeAg in culture medium” value ([2]; replicate 2) of the same substance?
Answer: 0.393 fold-change to WT

Question: What about the “HBsAg in culture medium” value ([2]; replicate 2) of the same substance?
Answer: 0.356 fold-change to WT

Question: And the “Secreted HBV DNA” value ([2]; replicate 2)?
Answer: 1498000 Copies/mL

Question: And the HBcAg in cells ([2]; replicate 3)?
Answer: 0.491 fold-change to WT

Question: What about the “HBeAg in culture medium” value ([2]; replicate 3) of the same substance?
Answer: 0.405 fold-change to WT

Question: And the “HBsAg in culture medium” value ([2]; replicate 3)?
Answer: 0.352 fold-change to WT

Question: And the “Secreted HBV DNA” value ([2]; replicate 3)?
Answer: 1278000 Copies/mL

Question: What about the “HBV viral protein production and HBV DNA replication (in words)” value [2] of the same substance?
Answer: failed to do so

— paper PMC6642116, “Structural and functional analyses of hepatitis B virus X protein BH3-like domain and Bcl-xL interaction” (Nature Communications, 2019)
